Reference: US6884600B1, “Protein phosphatase-1 catalytic subunit interactions” (Medical Research Council London, priority 1996, dated 2005)
pEC50: −log10 of the molar value. Entries after “also recorded” stand apart in the source; their conditions may differ.

How the values were obtained:
[1] = test system: PP1GL; assay: Phosphorylase phosphatase activity of PP1GL (hepatic glycogen particles); format: biochemical, rat
Protocol: Hepatic glycogen particles were diluted in assay buffer to 0.6 phosphorylase phosphatase (PhP) mU per ml, incubated for 15 minutes at 30° C. with GM-(G63-T93) (closed circles), GM-(G63-K80) (open circles) or GM-(G63-N75) (closed triangles) and assayed as described in Example 1. The open triangles show the effect of GM-(G63-N75) which had been phosphorylated at Ser67 by PKA (pGM-(G63-N75)). Similar results were obtained in four experiments.
(A) Hepatic glycogen protein particles containing PP1-GL were diluted and incubated for 15 min at 30° C. with the indicated concentrations of either M110[M1-F38] (open circles) or M110[M1-K35] (closed circles) and the phosphatase reactions were initiated by addition of ^32P-labelled glycogen phosphorylase. The results are expressed as a percentage of the activity determined in control incubations where the M110 peptides were omitted. Similar results were obtained in three separate experiments. (B) The experiment was carried out as in (A), except that the peptide GM[G63-N75] (“wild type”, WT) and variants in which either Val 66 (V66A) (closed triangles) or Phe 68 (F68A) (closed circles) were changed to Ala, were used instead of the M110 peptides. Similar results were obtained in three separate experiments.
(§1) The myosin-associated form of PP1 (PP1M) was from chicken gizzard and the glycogen-associated form of PP1 (PP1G) from rabbit skeletal muscle. The β isoform of PP1c was released from PP1G by incubation for 2 hours in 2M LiBr, then purified by gel-filtration on a 30×1 cm column of Superose 12 (Pharmacia, Milton Keynes, U.K.) in the presence of 0.5M LiBr. Glycogen protein particles from rat liver were used as the source of hepatic PP1G Digoxygenin-labelled PP1c (γ1-isoform, hereafter termed PP1) was prepared as in [9]. GL was expressed in E. coli as a glutathione-S-transferase (GST) fusion protein [7], termed GST-GL. The catalytic subunit of PP2A from bovine heart (PP2AC) was provided by Dr R. MacKintosh in this Unit. The phosphorylatable myosin light chain (MLC20) and heavy meromyosin from chicken gizzard were a gift from Dr M. Ikebe (Case Western Reserve University, Cleveland, USA). Thrombin and benzamidine-Agarose were purchased from Sigma (Poole, UK).
(§2) ^32P-labelled rabbit skeletal muscle phosphorylase a (containing 1.0 mol phosphate per mol subunit) was prepared by phosphorylation with phosphorylase kinase, ^32P-labelled rabbit skeletal muscle glycogen synthase (containing 1.5 mol/mol subunit in the sites 3 region) was prepared by phosphorylation with glycogen synthase kinase-3 [24]). ^32P-labelled chicken gizzard MLC20 and ^32P-labelled chicken gizzard heavy meromyosin (containing 1.0 mol phosphate per mol subunit) were prepared by phosphorylation with smooth muscle myosin light chain kinase. The dephosphorylation of phosphorylase a (10 μM), glycogen synthase (1 μM) and MLC20 (1 μM) and heavy meromyosin (1 μM) was carried out as in [24]. One unit of activity (U) was that amount which released […] of phosphate in one minute.
(§3) PP1c was isolated from the rabbit skeletal muscle PP1-GM complex as described previously (Johnson et al, 1996). Glycogen particles isolated from rat liver (Schelling el al, 1988) served as the source of PP1-GL. The dephosphorylation of glycogen phosphorylase (10 μM) and the isolated MLC20 of smooth muscle myosin (1 μM) by PP1c was carried out as described previously (Cohen et al., 1988; Alessi et al., 1992).

[2] = target: T1, PP1M (Gallus gallus, UniProt P62207); assay: Phosphorylase phosphatase activity of PP1M; format: biochemical, chicken
T1 construct: from tissue; host or cells: chicken gizzard smooth muscle
T1 sequence (P62207 whole entry): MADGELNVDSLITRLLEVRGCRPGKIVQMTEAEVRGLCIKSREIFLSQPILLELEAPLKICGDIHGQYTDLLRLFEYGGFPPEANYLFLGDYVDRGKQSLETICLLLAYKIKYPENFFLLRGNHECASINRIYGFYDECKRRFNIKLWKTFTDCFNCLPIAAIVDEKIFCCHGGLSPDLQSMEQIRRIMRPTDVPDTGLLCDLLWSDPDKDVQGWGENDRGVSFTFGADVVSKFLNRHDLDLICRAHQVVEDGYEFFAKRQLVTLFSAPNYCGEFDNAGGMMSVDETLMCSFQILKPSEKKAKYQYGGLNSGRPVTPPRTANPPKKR
Protocol: (§4) (A) The phosphorylase phosphatase (PhP) activity of PP1M (closed circles) and its MLC20 phosphatase (MLCP) activity (open circles) were assayed after preincubation for 15 minutes at 30° C. with the indicated concentrations of GM-(G63-T93). Activities are shown relative to control incubations in which GM-(G63-T93) was omitted. Similar results were obtained in three experiments.
(§5) (A) PP1M from chicken gizzard smooth muscle (Alessi et al., 1992) was diluted and incubated for 15 min at 30° C. with the peptide […] (SEQ ID No 4), corresponding to the sequence in p53BP2 that contains the RVXF motif. Reactions were started with either ^32P-labelled MLC20 or glycogen phosphorylase and the MLC20 phosphatase (open circles) and phosphorylase phosphatase (PhP, closed circles) activities were determined. The results are expressed as a percentage of the activity determined in control incubations where the p53BP2 peptide was omitted (100%). Similar results were obtained in three separate experiments. (B) same as (A) except that the peptide was incubated with diluted hepatic glycogen particles containing PP1-GL before measuring the PhP activity. Similar results were obtained in three separate experiments.
(§6) The myosin-associated form of PP1 (PP1M) was from chicken gizzard and the glycogen-associated form of PP1 (PP1G) from rabbit skeletal muscle. […]

[3] = target: T1, PP1M; assay: MLC20 phosphatase activity of PP1M; format: biochemical, chicken
Protocol: as §4, §5, §6

[4] = test system: cultured cells; assay: Effect of p53BP2 peptide introduced into cultured cells (cell cycle, apoptosis; WAF1 ELISA, Nuclear Matrix Protein ELISA); format: cell-based; settings: Example 5, present tense, no data
From the text: The function of p53BP2 is ascertained by examining the in vivo effect of peptides based on the sequence of the p53BP2 binding site to PP1. This may be done by reference to the consensus peptide sequence described in the previous Examples and by reference to the crystal structure in Example 2. The peptide is introduced into cultured cells using penetratin available from Appligene. Other importins may also be used. Alternatively cDNA specifying p53BP2 proteins mutant in the p53BP2 binding site to PP1 are transfected in cultured cells. The effect of these agents on the cell cycle and apoptosis are assessed by a number of methods, for example WAF1 ELISA and Nuclear Matrix Protein ELISA assays (Amersham).

[5] = target: T2, PP1c (Oryctolagus cuniculus, UniProt P62143); assay: Phosphorylase phosphatase activity of PP1c; format: biochemical, rabbit
T2 construct: from tissue; host or cells: rabbit skeletal muscle (PP1G dissociated with LiBr)
T2 sequence (P62143 whole entry): as the sequence (P62207 whole entry) above
Protocol: (§7) A,B; Effects of M110-(M1-E309) (closed circles), M110-(M1-F38) (open circles) and M110-(D39-E309) (open triangles) on the MLC20 phosphatase […] and phosphorylase phosphatase (B) activities of PP1c were measured after incubating PP1c for 15 minutes at 30° C. with each fragment. The results are presented as a percentage of those obtained in experiments where the M110 fragments were omitted.
(§8) C,D; The effect of M110-(M1-A150) (open circles) and M110-(L24-Y496) (closed circles) on the MLC20 phosphatase (C) and phosphorylase phosphatase (D) activities of PP1c were measured as in A,B.
(B) The phosphorylase phosphatase activity of PP1c was assayed as in A in the presence or absence of 1 μM GM-(G63-T93) and 1.0 nM M110-(M1-E309). The results are presented (SEM for three experiments) as a percentage of the PP1c activity measured in the absence of GM-(63-T93), M110-(M1-F38) or M110-(M1-E309).
as §1, §2, §3

[6] = target: T2, PP1c; assay: MLC20 (myosin P-light chain) phosphatase activity of PP1c; format: biochemical
Protocol: as §7, §8
(A) The MLC20 phosphatase activity of PP1c was assayed after incubation for 15 minutes at 30° C. in the presence or absence of 1 μM GM-(G63-T93) and either 0.1 μM M110-(M1-F38) or 0.1 nM M110-(M1-E309).
(1-38, open circles) or M110[M1-K35] (1-35, closed circles) were incubated with PP1c for 15 min at 30° C. and reactions started with the ^32P-labelled MLC20 substrate. The results are expressed as a % of the activity determined in control incubations where the M110 peptides were omitted (100%). Similar results were obtained in three separate experiments.
as §1, §2, §3
^32P-labelled myosin P-light chains containing 1.0 mol phosphate per mol subunit was prepared by phosphorylation with smooth muscle myosin light chain kinase. The dephosphorylation of myosin P-light chain (1 μM) was carried out as in [4] and one unit of activity (U) was that amount which catalysed the release of 1 μmole of phosphate in one min. When assaying PP1M in immunoprecipitates from the myofibrillar extracts, the tubes were shaken continuously and 3 nM okadaic acid was included to inhibit any PP2A present.

[7] = test system: PP1GL; assay: Glycogen synthase phosphatase activity of PP1GL; format: biochemical, rat
Protocol: as §1, with “UK). […]” for “UK).”

[8] = target: T1, PP1M; assay: Gel filtration of PP1M on Superose 12 with or without GM-(G63-T93); format: binding, chicken
Protocol: (B,C) PPIM was incubated for 15 minutes at 30° C. in the absence (B) and presence (C) of […] GM-(G63-T93), then passed through a 30×1 cm column of Superose 12 equilibrated at ambient temperature in 50 mM Tris/HCl pH 7.5, 0.2M NaCl, 0.1 mM EGTA, 0.1% (by vol) 2-mercaptoethanol, 0.03% (by mass) Brij 35 in the absence (B) or presence (C) of 1 μM GM-(G63-T93). Fractions (0.25 ml) were assayed for MLC20 phosphatase (MLCP) in B and for phosphorylase phosphatase (PhP) activity in C. The arrows denote the position of ferritin (450 kDa) and ovalbumin (43 kDa).

Sequence | effect on the phosphorylase phosphatase activity of PP1GL ([1]; hepatic glycogen particles containing PP1-GL) | effect on the phosphorylase phosphatase activity of PP1M [2] | effect on the MLC20 phosphatase activity of PP1M [3] | effect of the peptide in cultured cells [4] | displacement of GL from PP1c [1] | increase in the phosphorylase phosphatase activity of PP1GL ([1]; hepatic glycogen particles, 15 min 30° C.) | pEC50 ([1]; hepatic glycogen particles, 15 min 30° C., read-out: concentration required for 50% activation of the phosphorylase phosphatase activity of PP1GL) | prevention of suppression of the phosphorylase phosphatase activity of PP1c by a regulatory subunit or fragment [5] | maximal stimulation of the phosphorylase phosphatase activity of PP1c ([5]; SEM for three experiments) | prevention of stimulation of the MLC20 phosphatase activity of PP1c by M110 fragments [6] | effect on the glycogen synthase phosphatase activity of PP1GL [7] | increase in the phosphorylase phosphatase activity of PP1M ([2]; 10 μM peptide) | suppression of the MLC20 phosphatase activity of PP1M ([3]; 10 μM peptide) | dissociation of PP1M in gel-filtration experiments [8]
GKRTNLRKTGSERIAHGMRVKFNPLALLLDSC [32 residue peptide from p53BP2] | increase in the rate of dephosphorylation of glycogen phosphorylase | increase in the rate of dephosphorylation of glycogen phosphorylase | decrease in the rate of dephosphorylation of the MLC20 subunit of smooth muscle myosin | modulate the interaction between PP1 and p53BP2 in vivo and affect cell regulation and apoptosis | – | – | – | – | – | – | – | – | – | –
GRRVSFADNFGFNLVSVKEFDTWELPSVSTT [GM-(G63-T93), synthetic peptide, residues 63-93 of rabbit GM] | – | – | – | – | does not displace GL from PP1c | sixfold | 7.52 | prevented bacterially expressed GST-GL from suppressing the phosphorylase phosphatase activity of PP1c; also recorded: prevented M110-(M1-E309) from suppressing the phosphorylase phosphatase activity of PP1c | 37+1.4% | prevented M110-(M1-F38) or M110-(M1-E309) from stimulating the MLC20 phosphatase activity of PP1c | no effect | about 7 fold | 60-65% | displaced the M110 subunit from PP1M
